Assay results as given in patent publication US20090298878A1, “OXIME COMPOUNDS AND THE USE THEREOF” (priority 2006, published 2009).
Where a name gives a salt, the structure may show the parent alone.

Molecular target: T1, L-type calcium channel (LTCC) subunits (α1c, α2δ, and β1) (Rattus norvegicus, UniProt P22002)
T1 construct: expressed in transfected cells; pcDNA6.2DEST for α1c, pcDNA3.2DEST for β1, pcDNA3.1-Zeo for α2δ
Assay: FLIPR calcium mobilization assay for L-type calcium channel (HEK293 cells expressing recombinant rat LTCC subunits)
Format: cell-based
Settings: calcium mobilization in vitro assay, L-type calcium channel blockers
Method: Recombinant human embryonal kidney cells (HEK293, ATCC) stably transfected with either N-type calcium channel (NTCC) subunits (α1b, α2δ, and β3) or L-type calcium channel (LTCC) subunits (α1c, α2δ, and β1) were routinely cultured in growth medium consisting of Dulbecco's Modified Eagles Medium containing 10% FBS, 100 U/mL penicillin, 100 μg/mL streptomycin, 4 mM L-glutamine, 500 μg/mL geneticin (G418), 20 μg/mL Blasticidin S (InVivogen, San Diego, Calif.) and 500 μg/mL zeocin (InVivogen).
FLIPR Calcium Mobilization Assay for L-type Calcium Channel. One day prior to performing this assay, HEK293 cells stably expressing recombinant rat L-type calcium channel (LTCC) subunits (α1c, α2δ, and β1) were trypsinized, then seeded on poly-D-lysine-coated 96-well clear-bottom black plates (Becton Dickinson, Franklin Lakes, N.J.) at 75,000 cells/well. On the day of the assay, the plates were washed with LTCC wash buffer (127 mM NaCl, 2 mM MgCl2, 700 μM NaH2PO4, […], 5 mM NaHCO3, 8 mM HEPES, 10 mM glucose, pH 7.4), then loaded with 0.1 mL of LTCC wash buffer containing Fluo-4 (3 μM final concentration, Molecular Probes, Eugene, Oreg.). After 1 hour, the cells were washed with 0.1 mL LTCC wash buffer and resuspended in 0.05 mL LTCC assay buffer (same composition as LTCC wash buffer). Plates were then transferred to a FLIPR^96 for assay. The FLIPR measured basal Fluo-4 fluorescence for 15 seconds, then added 0.05 mL of each compound tested diluted in LTCC assay buffer at final concentrations ranging from about 846 pM to about 17 μM. Fluo-4 fluorescence was then measured for 5 minutes. 0.1 mL KCl agonist dissolved in LTCC assay buffer was then added to the cells to produce a final concentration of 90 mM KCl, and fluorescence was measured for another 45 seconds. Data were collected over the entire time course and analyzed using Excel, Graph Pad Prism, or an in-house regression analysis software.
Cloning of N- and L-type calcium channel subunit open reading frame cDNAs. Five cDNAs encoding subunits of the rat N- or L-type calcium channels were cloned by PCR amplification in order to reconstitute functional channels in a heterologous system. These were the alpha1b (α1b), beta1 (β1), beta3 (β3), alpha2delta (α2δ), and alpha1c (α1c) subunit cDNAs. The alpha1b subunit cDNA has been described by Dubel et al. in Proc. Natl. Acad. Sci. U.S.A 89: 5058-5062 (1992). The beta1 subunit cDNA has been described by Pragnell et al. in FEBS Lett. 291: 253-258 (1991). The beta3 subunit cDNA has been described by Castellano et al. in J. Biol. Chem. 268: 12359-12366 (1993). The alpha2delta subunit cDNA has been described by Kim et al. in Proc. Natl. Acad. Sci. U.S.A. 89: 3251-3255 (1992). The alpha1c subunit cDNA has been described by Koch et al. in J. Biol. Chem. 265: 17786-17791 (1990).
The 6.5 kb cDNA encoding the L-type calcium channel α1c subunit was cloned by PCR amplification from rat heart cDNA using primers 11 (SEQ ID NO: 11, TABLE 1) and 12 (SEQ ID NO:12, TABLE 1). The PCR fragment was subcloned and fully sequenced on both strands to confirm its identity. A clone matching consensus reference sequence M59786 and rat genomic DNA sequences was recombined into the mammalian expression vector pcDNA6.2DEST. Sequences around the recombinogenic region were sequenced to confirm accurate recombination into the expression vector.
L-type Recombinant Cell Line Development. L-type calcium channel expressing HEK-293 cells were created in two stages. Stage 1 was created as follows. The rat α1c, and β1 cDNA expression constructs (2.5 μg each) were co-transfected into human embryonic kidney (HEK-293) cells by Lipofectamine Plus reagent (Invitrogen), as per manufacturer's instructions. 24 hours later, cells were split in limiting dilution into multiple 96-well plates in selection media containing 20 μg/mL blasticidin and 500 μg/mL geneticin, and incubated for 3 weeks at 37° C., 5% CO2, 95% humidity. […]

T1 sequence (P22002 whole entry): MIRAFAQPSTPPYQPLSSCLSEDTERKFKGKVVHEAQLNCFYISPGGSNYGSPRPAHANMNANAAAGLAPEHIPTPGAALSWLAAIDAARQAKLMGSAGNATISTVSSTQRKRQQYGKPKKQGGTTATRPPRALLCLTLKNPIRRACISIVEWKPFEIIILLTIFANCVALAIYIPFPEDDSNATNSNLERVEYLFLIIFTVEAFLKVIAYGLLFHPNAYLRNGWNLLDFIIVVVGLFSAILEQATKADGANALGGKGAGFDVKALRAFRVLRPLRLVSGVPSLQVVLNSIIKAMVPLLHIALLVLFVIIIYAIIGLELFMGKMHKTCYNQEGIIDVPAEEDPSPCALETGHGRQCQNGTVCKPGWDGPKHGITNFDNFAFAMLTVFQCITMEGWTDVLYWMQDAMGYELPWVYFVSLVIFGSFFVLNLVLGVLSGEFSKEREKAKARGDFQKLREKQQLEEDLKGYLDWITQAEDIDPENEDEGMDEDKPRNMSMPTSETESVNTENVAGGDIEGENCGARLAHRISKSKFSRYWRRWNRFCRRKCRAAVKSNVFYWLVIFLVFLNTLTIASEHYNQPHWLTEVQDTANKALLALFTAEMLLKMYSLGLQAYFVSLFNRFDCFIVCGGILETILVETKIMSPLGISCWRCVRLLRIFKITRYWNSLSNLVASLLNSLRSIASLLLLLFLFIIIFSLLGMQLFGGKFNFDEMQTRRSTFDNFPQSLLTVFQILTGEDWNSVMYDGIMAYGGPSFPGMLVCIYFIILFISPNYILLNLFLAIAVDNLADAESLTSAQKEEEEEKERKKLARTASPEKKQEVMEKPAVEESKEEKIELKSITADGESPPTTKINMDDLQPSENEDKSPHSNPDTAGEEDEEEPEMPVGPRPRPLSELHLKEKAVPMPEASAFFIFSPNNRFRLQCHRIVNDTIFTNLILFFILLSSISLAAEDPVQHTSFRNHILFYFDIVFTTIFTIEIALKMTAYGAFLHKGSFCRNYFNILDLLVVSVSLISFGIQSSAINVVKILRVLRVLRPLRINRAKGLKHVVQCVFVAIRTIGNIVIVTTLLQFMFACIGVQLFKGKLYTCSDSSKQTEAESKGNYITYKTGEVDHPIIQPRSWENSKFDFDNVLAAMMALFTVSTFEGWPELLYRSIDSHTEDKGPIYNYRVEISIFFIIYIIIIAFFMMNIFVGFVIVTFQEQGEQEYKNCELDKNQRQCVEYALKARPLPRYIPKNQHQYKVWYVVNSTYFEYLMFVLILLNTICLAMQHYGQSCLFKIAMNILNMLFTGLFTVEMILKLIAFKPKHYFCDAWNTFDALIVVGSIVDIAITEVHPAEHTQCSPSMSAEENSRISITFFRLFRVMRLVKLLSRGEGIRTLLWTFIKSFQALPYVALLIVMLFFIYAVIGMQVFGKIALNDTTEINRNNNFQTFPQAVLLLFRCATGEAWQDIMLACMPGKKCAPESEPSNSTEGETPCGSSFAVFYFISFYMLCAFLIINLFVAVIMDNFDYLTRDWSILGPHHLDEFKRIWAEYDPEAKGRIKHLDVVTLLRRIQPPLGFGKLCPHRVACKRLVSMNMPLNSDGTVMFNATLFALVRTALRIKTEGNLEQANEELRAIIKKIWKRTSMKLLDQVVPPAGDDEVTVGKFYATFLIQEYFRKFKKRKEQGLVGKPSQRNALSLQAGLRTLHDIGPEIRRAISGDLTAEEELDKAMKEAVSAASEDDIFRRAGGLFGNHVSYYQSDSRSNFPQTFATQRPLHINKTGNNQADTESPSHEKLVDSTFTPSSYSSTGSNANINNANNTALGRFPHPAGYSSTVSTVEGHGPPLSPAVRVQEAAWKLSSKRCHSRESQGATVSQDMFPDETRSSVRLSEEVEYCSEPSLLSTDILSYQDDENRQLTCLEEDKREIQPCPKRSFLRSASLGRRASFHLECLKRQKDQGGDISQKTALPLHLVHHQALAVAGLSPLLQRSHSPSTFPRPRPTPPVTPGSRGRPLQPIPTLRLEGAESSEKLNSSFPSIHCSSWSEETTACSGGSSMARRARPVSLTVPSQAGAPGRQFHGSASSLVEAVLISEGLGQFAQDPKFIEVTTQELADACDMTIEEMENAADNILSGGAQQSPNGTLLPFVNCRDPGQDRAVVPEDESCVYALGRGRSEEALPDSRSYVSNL

IC50 [nM] | Structure (SMILES)
15200 | CN[C@@H](CC(C)C)C(=O)N1CCC(=NOCc2ccc(Cl)cc2)CC1 [Example 4, 1-((S)-4-Methyl-2-methylaminopentanoyl)piperidin-4-one O-(4-chlorobenzyl)oxime hydrochloride]

Molecular target: T2, N-type calcium channel (NTCC) (Homo sapiens, UniProt Q00975)
T2 construct: host or cells: IMR32 cells differentiated with dibutyryl cAMP and bromodeoxyuridine
Assay: FLIPR calcium mobilization assay for N-type calcium channel (differentiated IMR32 cells)
Format: cell-based
Settings: about 1.0 μM or less; calcium mobilization and/or electrophysiological assay
Outline: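 Human IMR32 cells differentiated 8 days (1 mM dibutyryl cAMP, 2.5 μM BrdU), pre-stimulated 1 h with 90 mM KCl plus compound (~846 pM–17 μM) and 5 μM nitrendipine, Fluo-4 loaded. FLIPR read basal fluorescence 315 s, then 90 mM KCl agonist added and fluorescence recorded 45 s; non-linear regression.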

T2 sequence (Q00975 whole entry): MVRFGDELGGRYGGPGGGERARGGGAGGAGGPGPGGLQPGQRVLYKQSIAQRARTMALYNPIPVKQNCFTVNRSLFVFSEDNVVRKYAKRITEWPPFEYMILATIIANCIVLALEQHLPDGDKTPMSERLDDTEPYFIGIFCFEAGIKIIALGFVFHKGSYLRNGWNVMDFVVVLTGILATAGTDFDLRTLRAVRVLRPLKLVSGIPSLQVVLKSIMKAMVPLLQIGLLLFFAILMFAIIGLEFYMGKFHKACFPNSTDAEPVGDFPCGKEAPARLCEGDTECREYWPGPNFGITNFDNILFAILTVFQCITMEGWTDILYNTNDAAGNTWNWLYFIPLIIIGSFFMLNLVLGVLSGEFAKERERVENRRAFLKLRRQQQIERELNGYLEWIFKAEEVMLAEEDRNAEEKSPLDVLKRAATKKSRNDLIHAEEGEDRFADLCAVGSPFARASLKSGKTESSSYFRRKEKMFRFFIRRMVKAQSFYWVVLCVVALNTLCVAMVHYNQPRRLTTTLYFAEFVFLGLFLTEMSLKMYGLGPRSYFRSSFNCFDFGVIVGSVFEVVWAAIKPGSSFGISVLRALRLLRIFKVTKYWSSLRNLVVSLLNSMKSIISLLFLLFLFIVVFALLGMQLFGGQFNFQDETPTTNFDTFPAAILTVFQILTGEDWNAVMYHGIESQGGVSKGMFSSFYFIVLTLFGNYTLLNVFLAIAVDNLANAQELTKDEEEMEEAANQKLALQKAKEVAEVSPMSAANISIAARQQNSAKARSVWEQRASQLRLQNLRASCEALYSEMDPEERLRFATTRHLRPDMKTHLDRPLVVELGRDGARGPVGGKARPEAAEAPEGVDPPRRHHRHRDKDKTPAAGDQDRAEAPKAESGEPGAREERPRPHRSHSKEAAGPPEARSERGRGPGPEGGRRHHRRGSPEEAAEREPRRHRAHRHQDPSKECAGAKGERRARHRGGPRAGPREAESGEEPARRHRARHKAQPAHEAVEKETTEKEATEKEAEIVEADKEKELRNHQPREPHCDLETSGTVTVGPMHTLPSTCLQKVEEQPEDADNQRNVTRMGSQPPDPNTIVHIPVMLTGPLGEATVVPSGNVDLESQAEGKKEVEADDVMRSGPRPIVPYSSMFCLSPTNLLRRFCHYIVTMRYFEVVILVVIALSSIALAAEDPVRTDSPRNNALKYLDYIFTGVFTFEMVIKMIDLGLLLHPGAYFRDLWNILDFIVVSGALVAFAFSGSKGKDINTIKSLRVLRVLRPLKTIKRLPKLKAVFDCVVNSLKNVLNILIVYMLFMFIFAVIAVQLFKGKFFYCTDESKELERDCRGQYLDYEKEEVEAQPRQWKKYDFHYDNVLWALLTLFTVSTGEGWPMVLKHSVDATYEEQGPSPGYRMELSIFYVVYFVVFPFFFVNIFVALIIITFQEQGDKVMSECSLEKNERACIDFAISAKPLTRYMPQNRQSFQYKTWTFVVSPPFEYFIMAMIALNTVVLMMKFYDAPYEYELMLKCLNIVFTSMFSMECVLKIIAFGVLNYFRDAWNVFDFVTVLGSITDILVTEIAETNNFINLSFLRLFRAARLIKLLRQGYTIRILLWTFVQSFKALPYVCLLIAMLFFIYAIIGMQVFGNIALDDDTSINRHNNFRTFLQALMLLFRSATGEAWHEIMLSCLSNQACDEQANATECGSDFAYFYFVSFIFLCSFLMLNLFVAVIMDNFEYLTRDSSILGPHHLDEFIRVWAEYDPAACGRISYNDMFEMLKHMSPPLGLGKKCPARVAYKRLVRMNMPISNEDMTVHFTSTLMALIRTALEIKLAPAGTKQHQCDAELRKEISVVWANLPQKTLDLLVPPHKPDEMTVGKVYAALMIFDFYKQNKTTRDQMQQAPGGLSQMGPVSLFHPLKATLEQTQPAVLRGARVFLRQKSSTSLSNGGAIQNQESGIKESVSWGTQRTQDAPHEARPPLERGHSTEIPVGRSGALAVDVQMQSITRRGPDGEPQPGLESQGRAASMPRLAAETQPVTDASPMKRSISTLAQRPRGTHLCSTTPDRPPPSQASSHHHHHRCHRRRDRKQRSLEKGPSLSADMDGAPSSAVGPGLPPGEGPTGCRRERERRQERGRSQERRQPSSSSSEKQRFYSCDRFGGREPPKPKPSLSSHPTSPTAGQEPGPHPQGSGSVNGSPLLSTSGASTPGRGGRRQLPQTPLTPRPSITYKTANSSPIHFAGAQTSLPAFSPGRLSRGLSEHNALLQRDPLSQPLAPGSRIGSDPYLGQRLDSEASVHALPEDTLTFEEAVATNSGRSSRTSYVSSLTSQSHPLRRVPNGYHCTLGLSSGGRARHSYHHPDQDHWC

Structure (SMILES) | IC50 [nM]
O=S(=O)(c1ccc(OC(F)(F)F)cc1)N1CCC(=NOCc2cccc(C(F)(F)F)c2)CC1 [Example 58, 1-(4-Trifluoromethoxybenzenesulfonyl)piperidin-4-one O-(3-trifluoromethylbenzyl)oxime] | ≤ 1000
O=S(=O)(c1ccc(Cl)nc1)N1CCC(=NOCc2cccc(C(F)(F)F)c2)CC1 [Example 64, 1-(6-Chloropyridine-3-sulfonyl)piperidin-4-one O-(3-trifluoromethylbenzyl)oxime] | ≤ 1000
CCCCc1ccc(S(=O)(=O)N2CCC(=NOCc3ccncc3)CC2)cc1 [Example 71, 1-(4-Butylbenzenesulfonyl)piperidin-4-one O-pyridin-4-ylmethyloxime] | ≤ 1000
O=S(=O)(c1ccccc1F)N1CCC(=NOCc2cccc(C(F)(F)F)c2)CC1 [Example 63, 1-(2-Fluorobenzenesulfonyl)piperidin-4-one O-(3-trifluoromethylbenzyl)oxime] | ≤ 1000
CCCCc1ccc(S(=O)(=O)N2CCC(=NOCc3cccc(Cl)c3)CC2)cc1 [Example 65, 1-(4-Butylbenzenesulfonyl)piperidin-4-one O-(3-chlorobenzyl)oxime] | ≤ 1000
O=C(CCC(c1ccc(F)cc1)c1ccc(F)cc1)N1CCC(=NOCc2cccc(C(F)(F)F)c2)CC1 [Example 29, 1-[4,4-Bis-(4-fluorophenyl)butyryl]piperidin-4-one O-(3-trifluoromethylbenzyl)oxime] | ≤ 1000
CCCCc1ccc(S(=O)(=O)N2CCC(=NOCc3ccc(F)c(C(F)(F)F)c3)CC2)cc1 [Example 81, 1-(4-Butylbenzenesulfonyl)piperidin-4-one O-(4-fluoro-3-trifluoromethylbenzyl)oxime] | ≤ 1000
O=S(=O)(c1ccccc1)N1CCC(=NOCc2cccc(C(F)(F)F)c2)CC1 [Example 51, 1-Benzenesulfonylpiperidin-4-one O-(3-trifluoromethylbenzyl)oxime] | ≤ 1000
CCCCc1ccc(S(=O)(=O)N2CCC(=NOCc3ccc(Cl)cc3)CC2)cc1 [Example 72, 1-(4-Butylbenzenesulfonyl)piperidin-4-one O-(4-chlorobenzyl)oxime] | ≤ 1000
CCCCc1ccc(S(=O)(=O)N2CCC(=NOCc3cccc(Cl)n3)CC2)cc1 [Example 75, 1-(4-Butylbenzenesulfonyl)piperidin-4-one O-(6-chloropyridin-2-ylmethyl)oxime] | ≤ 1000

Second part, the compound after the results:

IC50 [nM] | Structure (SMILES)
≤ 1000 | N#Cc1cccc(CON=C2CCN(S(=O)(=O)c3ccc(F)cc3)CC2)c1 [Example 196]
≤ 1000 | N#Cc1cccc(C(ON=C2CCN(S(=O)(=O)c3ccc(OC(F)(F)F)cc3)CC2)c2ccncc2)c1 (stereo not drawn) [Example 269, 3-(Pyridin-4-yl(1-(4-(trifluoromethoxy)phenylsulfonyl)piperidin-4-ylideneaminooxy)methyl)benzonitrile]
≤ 1000 | CCOc1ccc(S(=O)(=O)N2CCC(=NOCc3cccc(C(F)(F)F)c3)CC2)cc1 [Example 91, 1-(4-Ethoxybenzenesulfonyl)piperidin-4-one O-(3-trifluoromethylbenzyl)oxime]
≤ 1000 | O=S(=O)(c1ccc(OC(F)(F)F)cc1)N1CCC(=NOCc2ccc(Cl)cn2)CC1 [Example 127, 1-(4-Trifluoromethoxybenzenesulfonyl)piperidin-4-one O-(5-chloropyridin-2-ylmethyl)oxime]
≤ 1000 | N#Cc1cc(CON=C2CCN(S(=O)(=O)c3ccc(OC(F)(F)F)cc3)CC2)ccn1 [Example 177, 4-((1-(4-(Trifluoromethoxy)phenylsulfonyl)piperidin-4-ylideneaminooxy)methyl)picolinonitrile]
≤ 1000 | O=S(=O)(c1ccc(Cl)cc1Cl)N1CCC(=NOC(c2ccc(F)cc2)c2ccc(F)cc2)CC1 [Example 228, 1-(2,4-Dichlorophenylsulfonyl)piperidin-4-one O-bis(4-fluorophenyl)methyl oxime]
≤ 1000 | O=S(=O)(c1ccc(OC(F)F)cc1)N1CCC(=NOC(c2ccc(F)cc2)c2ccc(F)cc2)CC1 [Example 232, 1-(4-(Difluoromethoxy)phenylsulfonyl)piperidin-4-one O-bis(4-fluorophenyl)methyl oxime]
≤ 1000 | O=S(=O)(c1ccc(OC(F)(F)F)cc1)N1CCC(=NOCc2ccccc2-c2ccccc2)CC1 [Example 311, 1-(4-(Trifluoromethoxy)phenylsulfonyl)piperidin-4-one O-biphenyl-2-ylmethyl oxime]
≤ 1000 | O=c1ccc(C(ON=C2CCN(S(=O)(=O)c3ccc(OC(F)(F)F)cc3)CC2)c2ccc(F)cc2)c[nH]1 (stereo not drawn) [Example 214, 5-((4-Fluorophenyl)(1-(4-(trifluoromethoxy)phenylsulfonyl)piperidin-4-ylideneaminooxy)methyl)pyridin-2(1H)-one]
≤ 1000 | N#Cc1cc(CON=C2CCN(S(=O)(=O)c3ccc(OC(F)(F)F)cc3)CC2)ccc1F [Example 108, 2-Fluoro-5-[1-(4-trifluoromethoxybenzenesulfonyl)piperidin-4-ylideneaminooxymethyl]benzonitrile]
≤ 1000 | CC(ON=C1CCN(S(=O)(=O)c2cccc(C(F)(F)F)c2)CC1)c1ccccc1 (stereo not drawn) [Example 276, 1-(3-(Trifluoromethyl)phenylsulfonyl)piperidin-4-one O-1-phenylethyl oxime]
≤ 1000 | CC(C)CCON=C1CCN(S(=O)(=O)c2cccc(C(F)(F)F)c2)CC1 [Example 366, 1-(3-(Trifluoromethyl)phenylsulfonyl)piperidin-4-one O-isopentyl oxime]
≤ 1000 | O=S(=O)(c1cccs1)N1CCC(=NOC(c2ccc(F)cc2)c2ccc(F)cc2)CC1 [Example 252, 1-(Thiophen-2-ylsulfonyl)piperidin-4-one O-bis(4-fluorophenyl)methyl oxime]
≤ 1000 | N#Cc1cccc(C(ON=C2CCN(S(=O)(=O)c3ccc(OC(F)(F)F)cc3)CC2)c2ccccn2)c1 (stereo not drawn) [Example 271, 3-(Pyridin-2-yl(1-(4-(trifluoromethoxy)phenylsulfonyl)piperidin-4-ylideneaminooxy)methyl)benzonitrile]
≤ 1000 | N#Cc1cccc(C(ON=C2CCN(S(=O)(=O)c3ccc(OC(F)(F)F)cc3)CC2)C2CC2)c1 (stereo not drawn) [Example 186, 3-(Cyclopropyl(1-(4-(trifluoromethoxy)phenylsulfonyl)piperidin-4-ylideneaminooxy)methyl)benzonitrile]

Same assay, conditions: calcium mobilization in vitro assay, N-type calcium channel blockers

IC50 [nM] | Structure (SMILES)
860 | CN[C@@H](CC(C)C)C(=O)N1CCC(=NOCc2ccc(Cl)cc2)CC1 [Example 4, 1-((S)-4-Methyl-2-methylaminopentanoyl)piperidin-4-one O-(4-chlorobenzyl)oxime hydrochloride]
